Data: ChEMBL document CHEMBL3880427, “P70 S6 kinase inhibitors” (2012)

Experiments:
Type in all cases: functional, HCT-116
[1] = Antitumor activity against human HCT116 cells xenografted in athymic nude mouse assessed as tumor volume at 30 mg/kg, po bid administered for 21 days measured on day 8 post last dose (reference value: 38.5 +/- 4.1 mm'3)
[2] = Antitumor activity against human HCT116 cells xenografted in athymic nude mouse assessed as tumor volume at 30 mg/kg, po bid administered for 21 days measured on day 13 post last dose (reference value: 100.9 +/- 13.7 mm'3)
[3] = Antitumor activity against human HCT116 cells xenografted in athymic nude mouse assessed as tumor volume at 30 mg/kg, po bid administered for 21 days measured on day 16 post last dose (reference value: 163.1 +/- 25.7 mm'3)
[4] = Antitumor activity against human HCT116 cells xenografted in athymic nude mouse assessed as tumor volume at 30 mg/kg, po bid administered for 21 days measured on day 20 post last dose (reference value: 287.1 +/- 31.9 mm'3)
[5] = Antitumor activity against human HCT116 cells xenografted in athymic nude mouse assessed as tumor volume at 30 mg/kg, po bid administered for 21 days measured on day 23 post last dose (reference value: 402.2 +/- 43.1 mm'3)
[6] = Antitumor activity against human HCT116 cells xenografted in athymic nude mouse assessed as tumor volume at 30 mg/kg, po bid administered for 21 days measured on day 27 post last dose (Rvb= 545 +/- 41.1 mm'3)
[7] = Antitumor activity against human HCT116 cells xenografted in athymic nude mouse assessed as tumor volume at 60 mg/kg, po bid administered for 21 days measured on day 8 post last dose (reference value: 38.5 +/- 4.1 mm'3)
[8] = Antitumor activity against human HCT116 cells xenografted in athymic nude mouse assessed as tumor volume at 60 mg/kg, po bid administered for 21 days measured on day 13 post last dose (reference value: 100.9 +/- 13.7 mm'3)
[9] = Antitumor activity against human HCT116 cells xenografted in athymic nude mouse assessed as tumor volume at 60 mg/kg, po bid administered for 21 days measured on day 16 post last dose (reference value: 163.1 +/- 25.7 mm'3)
[10] = Antitumor activity against human HCT116 cells xenografted in athymic nude mouse assessed as tumor volume at 60 mg/kg, po bid administered for 21 days measured on day 20 post last dose (reference value: 287.1 +/- 31.9 mm'3)
[11] = Antitumor activity against human HCT116 cells xenografted in athymic nude mouse assessed as tumor volume at 60 mg/kg, po bid administered for 21 days measured on day 23 post last dose (reference value: 402.2 +/- 43.1 mm'3)
[12] = Antitumor activity against human HCT116 cells xenografted in athymic nude mouse assessed as tumor volume at 60 mg/kg, po bid administered for 21 days measured on day 27 post last dose (Rvb= 545 +/- 41.1 mm'3)
[13] = Antitumor activity against human HCT116 cells xenografted in athymic nude mouse assessed as tumor volume at 60 mg/kg, po qd administered for 21 days measured on day 8 post last dose (reference value: 38.5 +/- 4.1 mm'3)
[14] = Antitumor activity against human HCT116 cells xenografted in athymic nude mouse assessed as tumor volume at 60 mg/kg, po qd administered for 21 days measured on day 13 post last dose (reference value: 100.9 +/- 13.7 mm'3)
[15] = Antitumor activity against human HCT116 cells xenografted in athymic nude mouse assessed as tumor volume at 60 mg/kg, po qd administered for 21 days measured on day 16 post last dose (reference value: 163.1 +/- 25.7 mm'3)
[16] = Antitumor activity against human HCT116 cells xenografted in athymic nude mouse assessed as tumor volume at 60 mg/kg, po qd administered for 21 days measured on day 20 post last dose (reference value: 287.1 +/- 31.9 mm'3)
[17] = Antitumor activity against human HCT116 cells xenografted in athymic nude mouse assessed as tumor volume at 60 mg/kg, po qd administered for 21 days measured on day 23 post last dose (reference value: 402.2 +/- 43.1 mm'3)
[18] = Antitumor activity against human HCT116 cells xenografted in athymic nude mouse assessed as tumor volume at 60 mg/kg, po qd administered for 21 days measured on day 27 post last dose (Rvb= 545 +/- 41.1 mm'3)

Q: With `Cl.FC(F)(F)c1cccc(-c2c[nH]c(C3CCN(c4ncnc5[nH]ncc45)CC3)n2)c1` as the molecule, how does the Activity [1] read?
A: Its Activity is 36.5 mm3.

Q: And the Activity [2]?
A: The Activity was 58.7 mm3.

Q: What about the Activity [3] of the same molecule?
A: Its Activity is 90.9 mm3.

Q: And the Activity [4]?
A: Its Activity is 134.6 mm3.

Q: What about the Activity [5] of the same molecule?
A: The Activity was 192.7 mm3.

Q: And the Activity [6]?
A: The Activity was 296.3 mm3.

Q: And the Activity [7]?
A: Its Activity is 28.8 mm3.

Q: And the Activity [8]?
A: Its Activity is 42.1 mm3.

Q: What about the Activity [9] of the same molecule?
A: The Activity was 72.1 mm3.

Q: What about the Activity [10] of the same molecule?
A: The Activity was 139 mm3.

Q: And the Activity [11]?
A: The Activity was 188.4 mm3.

Q: And the Activity [12]?
A: Its Activity is 280 mm3.

Q: And the Activity [13]?
A: The Activity was 30.6 mm3.

Q: What about the Activity [14] of the same molecule?
A: The Activity was 57.8 mm3.

Q: And the Activity [15]?
A: The Activity was 85 mm3.

Q: What about the Activity [16] of the same molecule?
A: Its Activity is 142.5 mm3.

Q: And the Activity [17]?
A: The Activity was 194.5 mm3.

Q: And the Activity [18]?
A: Its Activity is 252.7 mm3.
